Reference: patent publication US11426417B2, “Neuroactive steroid formulations and methods of treating CNS disorders” (Sage Therapeutics, Inc., priority 2012, dated 2022)

Assays:
Fmr1 KO mice = test: Audiogenic seizure (AGS) status epilepticus rescue in Fmr1 knockout mice; type: in vivo; conditions: 3, 10, 30 mg/kg IP in 30% b-Cyclodextrin; relative to vehicle treated control
Protocol: FIG. 1A is a bar graph depicting the percent seizure in fmr1 KO mice intraperitoneally administered 3, 10, 30 mg/kg allopregnanolone in 30% β-Cyclodextrin. FIG. 1B is a bar graph depicting the percent survival in fmr1 KO mice intraperitoneally administered 3, 10, 30 mg/kg allopregnanolone in 30% β-Cyclodextrin.
(§1) Plasma levels of six animals in each Allopregnanolone treatment group were collected randomly at completion of study and analyzed by LC-MS/MS. Bioanalytical measures are indicated in ng/mL (FIG. 1A). Data are presented as mean+/−SEM. *P<0.05 indicate a statistically significant difference relative to vehicle control by Fisher's PLSD. MPEP 30 mg/kg was used as a positive control in the study.

[1] = tested on: PTZ-treated C57BL6/J mice; test: PTZ (pentylenetetrazol) seizure model, prevention of status epilepticus; type: in vivo; conditions: 3, 10, 30 mg/kg IP in 15% β-Cyclodextrin; PTZ 85 mg/kg IP; relative to vehicle-treated control
Protocol: FIG. 2A is a graph depicting the seizure rank in PZT treated C57BL6/J mice intraperitoneally administered 3, 10, 30 mg/kg allopregnanolone in 15% β-Cyclodextrin. FIG. 2B is graph depicting the latency to death period in PZT treated C57BL65 mice intraperitoneally administered 3, 10, 30 mg/kg allopregnanolone in 15% β-Cyclodextrin.
as §1, with “three” for “six”, “2A).” for “1A).”, “Valproate 400” for “MPEP 30”

[2] = Plasma and brain exposure by LC/MS-MS after single IM or IV dose; conditions: 30% CAPTISOL, SD rats
Protocol: FIG. 4A depicts the plasma exposure profiles of allopregnanolone measured by LC/MS-MS after single intramuscular (10 mg/kg) or intravenous (5 mg/kg) allopregnanolone dose in 30% CAPTISOL® in SD rats. FIG. 4B depicts the brain exposure profiles of allopregnanolone measured by LC/MS-MS after single intramuscular (10 mg/kg) or intravenous (5 mg/kg) allopregnanolone dose in 30% CAPTISOL® in SD rats.
The plasma and brain exposure profiles of Allopregnanolone were measured by LC/MS-MS after single intramuscular (IM) (10 mg/kg) or intravenous (IV) (5 mg/kg) dose in 30% CAPTISOL® in SD rats. […] N=2/time point. Error bars, SEM (FIGS. 4A and 4B).

[3] = tested on: penetrating ballistic brain injury rodent model; test: Penetrating ballistic brain injury rodent model of traumatic brain injury; type: in vivo; conditions: in 6% CAPTISOL; low (2.5 then 1.25 mg/kg/hr) and high (5.0 then 2.50 mg/kg/hr) dose groups, 5 day infusion
Excerpt: FIG. 5A depicts the latency to fall period (seconds) in a penetrating ballistic brain injury rodent model of traumatic brain injury in both the low and high dose groups progesterone in 6% CAPTISOL®. FIG. 5B depicts the mean motor score in a penetrating ballistic brain injury rodent model of traumatic brain injury in both the low and high dose groups progesterone in 6% CAPTISOL®.
Progesterone in 6% CAPTISOL® rescued motor impairment in a penetrating ballistic brain injury rodent model of traumatic brain injury in both the low and high dose groups (FIG. 5A and FIG. 5B). Progesterone was administered via a bolus loading dose followed by a 5 day continuous infusion where progesterone was tapered over the last 24 hours every 8 hrs by 25%. The low dose group received 2.5 mg/kg/hr for a 1 hr bolus infusion followed by a maintenance dose of 1.25 mg/kg/hr over 5 days with the last 24 hours being a taper. The high dose group received 5.0 mg/kg/hr for a 1 hr bolus infusion followed by a maintenance dose of 2.50 mg/kg/hr over 5 days with the last 24 hours being a taper.

## CC(=O)[C@H]1CC[C@H]2[C@@H]3CC[C@H]4C[C@H](O)CC[C@]4(C)[C@H]3CC[C@]12C [Allopregnanolone, 3 alpha-hydroxy-5 alpha-pregnan-20-one]
Fmr1 KO mice
  Percent Seizure: significant decrease
  Percent Survival: increase
[1]
  Latency to Death: increase
  Seizure rank: significant decrease
[2]; 0.5-2 hr
  exposure in plasma, IM (10 mg/kg) relative to IV (5 mg/kg) dose: 671-916%
[2]; 1 hr
  exposure in brain, IM (10 mg/kg) relative to IV (5 mg/kg) dose: 506%

## CC(=O)[C@H]1CC[C@H]2[C@@H]3CCC4=CC(=O)CC[C@]4(C)[C@H]3CC[C@]12C [Progesterone, pregn-4-ene-3,20-dione]
[3]
  motor impairment (latency to fall, mean motor score): rescued
